pEC50, pIC50: −log10 of the molar value.
How the values were obtained:
[1] = molecular target: DGKalpha (hDGKalpha(1-735)-N-His) (Homo sapiens (Human), UniProt P23743); experiment: In vitro DGK inhibition assay, ADP-Glo (in house), DGKalpha; type: biochemical; details: DLG liposomes, 25 μM ATP, 4 nM enzyme, 1 hour reaction
primary human T-cells = experiment: T-cell proliferation assay (CellTiter-Glo); type: cell-based; details: CD3 condition; for Emax proliferation (% activation): 5 days, 20 μM reference compound A1 = 100%; for pEC50: Homo sapiens, T-cell, 120 h, proliferation after 5 days, CellTiter-Glo, read-out: Tcell Proliferation CD3 EC50

Sequence of DGKalpha (hDGKalpha(1-735)-N-His) (P23743 whole entry): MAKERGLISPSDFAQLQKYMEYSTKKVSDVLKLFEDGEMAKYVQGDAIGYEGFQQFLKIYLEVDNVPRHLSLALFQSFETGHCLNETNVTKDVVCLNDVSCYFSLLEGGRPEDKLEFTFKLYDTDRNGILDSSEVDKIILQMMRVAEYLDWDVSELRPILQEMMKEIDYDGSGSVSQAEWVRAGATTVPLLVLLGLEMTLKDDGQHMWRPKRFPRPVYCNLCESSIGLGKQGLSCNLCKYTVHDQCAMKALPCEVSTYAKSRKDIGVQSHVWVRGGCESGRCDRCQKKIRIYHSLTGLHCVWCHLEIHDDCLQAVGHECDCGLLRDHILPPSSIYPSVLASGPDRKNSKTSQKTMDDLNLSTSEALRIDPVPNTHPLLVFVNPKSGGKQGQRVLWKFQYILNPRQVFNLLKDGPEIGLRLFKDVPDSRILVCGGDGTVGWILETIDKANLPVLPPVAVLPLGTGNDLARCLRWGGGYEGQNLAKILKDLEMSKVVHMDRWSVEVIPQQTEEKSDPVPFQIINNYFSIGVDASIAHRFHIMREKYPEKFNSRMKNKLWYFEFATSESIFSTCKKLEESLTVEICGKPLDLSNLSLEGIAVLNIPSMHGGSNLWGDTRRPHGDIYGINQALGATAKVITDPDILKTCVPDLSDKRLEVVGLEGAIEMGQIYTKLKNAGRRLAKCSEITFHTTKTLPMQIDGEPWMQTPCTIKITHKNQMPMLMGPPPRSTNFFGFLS

SMILES: COc1ccc(-c2ccc(CN3C(=O)[C@@H](N)CS(=O)(=O)c4cc(F)c(-c5cnc(C)c(C)c5)cc43)cc2)cc1 [Example 28, (3R)-3-amino-7-(5,6-dimethyl-3-pyridyl)-8-fluoro-5-[[4-(4-methoxyphenyl)phenyl]methyl]-1,1-dioxo-2,3-dihydro-1λ6,5-benzothiazepin-4-one]
- pIC50 [1]: 5.51
- Emax proliferation (% activation) (primary human T-cells): 155 % activation
- pEC50 (primary human T-cells): 7.09

SMILES: CC(C)(C)c1cncc(-c2cc3c(cc2F)S(=O)(=O)C[C@H](N)C(=O)N3Cc2ccc(Cl)cc2)c1 [Example 2, (3R)-3-amino-7-(5-tert-butyl-3-pyridyl)-5-[(4-chlorophenyl)methyl]-8-fluoro-1,1-dioxo-2,3-dihydro-1λ6,5-benzothiazepin-4-one]
- pEC50 (primary human T-cells): 7.09

SMILES: CC(C)(c1cncc(-c2cc3c(cc2F)S(=O)(=O)C[C@H](N)C(=O)N3Cc2ccc(-c3noc(C(F)(F)F)n3)cc2)c1)S(C)(=O)=O [Example 25, (3R)-3-amino-8-fluoro-1,1-diketo-7-[5-(1-mesyl-1-methyl-ethyl)-3-pyridyl]-5-[4-[5-(trifluoromethyl)-1,2,4-oxadiazol-3-yl]benzyl]-2,3-dihydro-1λ6,5-benzothiazepin-4-one]
- pIC50 [1]: 4.65
- Emax proliferation (% activation) (primary human T-cells): 120 % activation
- pEC50 (primary human T-cells): 6.28

SMILES: CC(C)(C)c1cnnc(-c2cc3c(cc2F)S(=O)(=O)C[C@H](N)C(=O)N3Cc2ccc(Cl)cc2)n1 [Example 11, (3R)-3-amino-7-(5-tert-butyl-1,2,4-triazin-3-yl)-5-[(4-chlorophenyl)methyl]-8-fluoro-1,1-dioxo-2,3-dihydro-1λ6,5-benzothiazepin-4-one]
- pEC50 (primary human T-cells): 7.05

SMILES: CC(C)(C#N)c1cncc(-c2cc3c(cc2F)S(=O)(=O)C[C@H](N)C(=O)N3Cc2ccc(-c3noc(C(F)(F)F)n3)cc2)c1 [Example 23, 2-[5-[(3R)-3-amino-8-fluoro-1,1,4-triketo-5-[4-[5-(trifluoromethyl)-1,2,4-oxadiazol-3-yl]benzyl]-2,3-dihydro-1λ6,5-benzothiazepin-7-yl]-3-pyridyl]-2-methyl-propionitrile]
- pIC50 [1]: 4.76
- Emax proliferation (% activation) (primary human T-cells): 204 % activation
- pEC50 (primary human T-cells): 6.03
